From paper PMC10041525, “New Dual Inhibitors of Bacterial Topoisomerases with Broad-Spectrum Antibacterial Activity and In Vivo Efficacy against Vancomycin-Intermediate Staphylococcus aureus” (Journal of Medicinal Chemistry, 2023)
Where two headings read alike, the source gives them in different places.

Legend:
S. pneumoniae (n = 12) = experiment: MIC broth microdilution at IHMA Europe; assay type: cell-based; settings: for MIC: Streptococcus pneumoniae, read-out: MIC
[1] = test system: Haemophilus influenzae (n = 14); experiment: MIC broth microdilution at IHMA Europe; assay type: cell-based, H. influenzae; settings: Haemophilus influenzae, read-out: MIC
P. aeruginosa ATCC 27853 = experiment: IHMA QC MIC; assay type: cell-based
[2] = test system: 100 A. baumannii strains (50 MDR, 50 non-MDR); experiment: MIC broth microdilution at IHMA Europe, panel of 100 strains; assay type: cell-based; settings: Acinetobacter baumannii

## C[C@H]1COc2c(N3CCN(C)CC3)c(F)cc3c(=O)c(C(=O)O)cn1c23.C[C@H]1COc2c(N3CCN(C)CC3)c(F)cc3c(=O)c(C(=O)O)cn1c23.O [Levofloxacin, levofloxacin]
S. pneumoniae (n = 12); MIC 0.5 µg/mL
  No. of isolates at MIC: 5
S. pneumoniae (n = 12); S. pneumoniae IHMA N° 1775387
  MIC: 1 µg/mL
S. pneumoniae (n = 12); S. pneumoniae IHMA N° 1776057
  MIC: 0.5 µg/mL
S. pneumoniae (n = 12); S. pneumoniae IHMA N° 1785617
  MIC: 0.5 µg/mL
S. pneumoniae (n = 12); S. pneumoniae IHMA N° 1800765
  MIC: 1 µg/mL
S. pneumoniae (n = 12); S. pneumoniae IHMA N° 1811259
  MIC: 0.5 µg/mL
S. pneumoniae (n = 12); S. pneumoniae IHMA N° 1831562
  MIC: 1 µg/mL
S. pneumoniae (n = 12); S. pneumoniae IHMA N° 1902609
  MIC: 1 µg/mL
S. pneumoniae (n = 12); S. pneumoniae IHMA N° 1979675
  MIC: 0.5 µg/mL
S. pneumoniae (n = 12); S. pneumoniae IHMA N° 1991963
  MIC: > 32 µg/mL
S. pneumoniae (n = 12); S. pneumoniae IHMA N° 2057487
  MIC: 1 µg/mL
S. pneumoniae (n = 12); S. pneumoniae IHMA N° 2073087
  MIC: 1 µg/mL
S. pneumoniae (n = 12); S. pneumoniae IHMA N° 2117109
  MIC: 0.5 µg/mL
[1]; H. influenzae IHMA N° 1227715
  MIC: 0.015 µg/mL
[1]; H. influenzae IHMA N° 1241620
  MIC: ≤ 0.004 µg/mL
[1]; H. influenzae IHMA N° 1244149
  MIC: 0.015 µg/mL
[1]; H. influenzae IHMA N° 1249803
  MIC: 0.015 µg/mL
[1]; H. influenzae IHMA N° 1254355
  MIC: 0.12 µg/mL
[1]; H. influenzae IHMA N° 1258580
  MIC: 0.015 µg/mL
[1]; H. influenzae IHMA N° 1262734
  MIC: 0.015 µg/mL
[1]; H. influenzae IHMA N° 1272723
  MIC: 0.015 µg/mL
[1]; H. influenzae IHMA N° 1286846
  MIC: 0.015 µg/mL
[1]; H. influenzae IHMA N° 1337530
  MIC: 0.015 µg/mL
[1]; H. influenzae IHMA N° 1440085
  MIC: 0.015 µg/mL
[1]; H. influenzae IHMA N° 1479509
  MIC: 0.0015 µg/mL
[1]; H. influenzae IHMA N° 1952952
  MIC: 0.015 µg/mL
[1]; H. influenzae IHMA N° 2047461
  MIC: 0.008 µg/mL
P. aeruginosa ATCC 27853; Pseudomonas aeruginosa, ATCC27853, QC strain P. aeruginosa ATCC 27853, test date 2021-11-11
  MIC: 2 µg/mL
P. aeruginosa ATCC 27853; Pseudomonas aeruginosa, ATCC27853, QC strain P. aeruginosa ATCC 27853, test date 2021-11-26
  MIC: 1 µg/mL
P. aeruginosa ATCC 27853; QC strain P. aeruginosa ATCC 27853, test date 2021-11-11
  MIC: 1 µg/mL
[2]; A. baumannii IHMA 1769393, Lithuania 2018, Non-MDR
  MIC: ≤ 0.25 µg/mL
[2]; A. baumannii IHMA 1769782, Israel 2018, MDR
  MIC: 4 µg/mL
[2]; A. baumannii IHMA 1769910, Israel 2018, Non-MDR
  MIC: ≤ 0.25 µg/mL
[2]; A. baumannii IHMA 1790317, Czech Republic 2018, Non-MDR
  MIC: ≤ 0.25 µg/mL
[2]; A. baumannii IHMA 1790916, Romania 2018, Non-MDR
  MIC: ≤ 0.25 µg/mL
[2]; A. baumannii IHMA 1791877, Israel 2018, MDR
  MIC: 4 µg/mL
[2]; A. baumannii IHMA 1792961, Jordan 2018, MDR
  MIC: 8 µg/mL
[2]; A. baumannii IHMA 1795669, Tunisia 2018, Non-MDR
  MIC: ≤ 0.25 µg/mL
[2]; A. baumannii IHMA 1814276, Lebanon 2018, MDR
  MIC: 16 µg/mL
[2]; A. baumannii IHMA 1815198, Kuwait 2018, MDR
  MIC: 16 µg/mL
[2]; A. baumannii IHMA 1815856, Israel 2018, MDR
  MIC: 8 µg/mL
[2]; A. baumannii IHMA 1821468, South Africa 2018, Non-MDR
  MIC: ≤ 0.25 µg/mL
[2]; A. baumannii IHMA 1829500, Georgia 2018, Non-MDR
  MIC: ≤ 0.25 µg/mL
[2]; A. baumannii IHMA 1830924, United Kingdom 2018, Non-MDR
  MIC: ≤ 0.25 µg/mL
[2]; A. baumannii IHMA 1849819, Kuwait 2018, MDR
  MIC: 16 µg/mL
[2]; A. baumannii IHMA 1849829, Kuwait 2018, Non-MDR
  MIC: ≤ 0.25 µg/mL
[2]; A. baumannii IHMA 1857118, Slovenia 2018, Non-MDR
  MIC: ≤ 0.25 µg/mL
[2]; A. baumannii IHMA 1863631, France 2018, Non-MDR
  MIC: ≤ 0.25 µg/mL
[2]; A. baumannii IHMA 1870054, United States 2018, Non-MDR
  MIC: ≤ 0.25 µg/mL
[2]; A. baumannii IHMA 1884428, Italy 2018, Non-MDR
  MIC: ≤ 0.25 µg/mL
[2]; A. baumannii IHMA 1884990, Germany 2018, Non-MDR
  MIC: ≤ 0.25 µg/mL
[2]; A. baumannii IHMA 1900538, Turkey 2018, Non-MDR
  MIC: ≤ 0.25 µg/mL
[2]; A. baumannii IHMA 1913773, Kenya 2018, Non-MDR
  MIC: ≤ 0.25 µg/mL
[2]; A. baumannii IHMA 1926285, Qatar 2018, Non-MDR
  MIC: ≤ 0.25 µg/mL
[2]; A. baumannii IHMA 1926288, Qatar 2018, MDR
  MIC: > 16 µg/mL
[2]; A. baumannii IHMA 1957343, Portugal 2019, Non-MDR
  MIC: ≤ 0.25 µg/mL
[2]; A. baumannii IHMA 1963732, Turkey 2019, MDR
  MIC: 16 µg/mL
[2]; A. baumannii IHMA 1967860, Spain 2019, Non-MDR
  MIC: ≤ 0.25 µg/mL
[2]; A. baumannii IHMA 1971673, Latvia 2019, MDR
  MIC: 16 µg/mL
[2]; A. baumannii IHMA 1975075, Israel 2019, Non-MDR
  MIC: ≤ 0.25 µg/mL
[2]; A. baumannii IHMA 1977077, Kuwait 2019, Non-MDR
  MIC: ≤ 0.25 µg/mL
[2]; A. baumannii IHMA 1983151, Greece 2019, MDR
  MIC: 8 µg/mL
[2]; A. baumannii IHMA 1984665, Lithuania 2019, MDR
  MIC: 16 µg/mL
[2]; A. baumannii IHMA 1986678, Turkey 2019, Non-MDR
  MIC: ≤ 0.25 µg/mL
[2]; A. baumannii IHMA 1986738, Turkey 2019, MDR
  MIC: 16 µg/mL
[2]; A. baumannii IHMA 1987162, Croatia 2019, MDR
  MIC: 8 µg/mL
[2]; A. baumannii IHMA 1993615, Turkey 2019, MDR
  MIC: 8 µg/mL
[2]; A. baumannii IHMA 1994284, Italy 2019, MDR
  MIC: > 16 µg/mL
[2]; A. baumannii IHMA 1995161, Czech Republic 2019, Non-MDR
  MIC: ≤ 0.25 µg/mL
[2]; A. baumannii IHMA 1997936, Morocco 2019, Non-MDR
  MIC: ≤ 0.25 µg/mL
[2]; A. baumannii IHMA 1999178, Belgium 2019, Non-MDR
  MIC: ≤ 0.25 µg/mL
[2]; A. baumannii IHMA 2003279, Turkey 2019, MDR
  MIC: 8 µg/mL
[2]; A. baumannii IHMA 2014367, Jordan 2019, Non-MDR
  MIC: ≤ 0.25 µg/mL
[2]; A. baumannii IHMA 2014931, South Africa 2019, Non-MDR
  MIC: ≤ 0.25 µg/mL
[2]; A. baumannii IHMA 2019315, Romania 2019, Non-MDR
  MIC: ≤ 0.25 µg/mL
[2]; A. baumannii IHMA 2020360, Croatia 2019, MDR
  MIC: 16 µg/mL
[2]; A. baumannii IHMA 2031511, Greece 2019, Non-MDR
  MIC: ≤ 0.25 µg/mL
[2]; A. baumannii IHMA 2031524, Greece 2019, MDR
  MIC: 4 µg/mL
[2]; A. baumannii IHMA 2034657, Tunisia 2019, Non-MDR
  MIC: ≤ 0.25 µg/mL
[2]; A. baumannii IHMA 2035089, Serbia 2019, MDR
  MIC: 16 µg/mL
[2]; A. baumannii IHMA 2035134, Serbia 2019, Non-MDR
  MIC: ≤ 0.25 µg/mL
[2]; A. baumannii IHMA 2038976, Hungary 2019, MDR
  MIC: 8 µg/mL
[2]; A. baumannii IHMA 2051503, Serbia 2019, MDR
  MIC: 16 µg/mL
